Test: Induction of mitotic cell cycle arrest in potoroo PtK2 cells assessed as accumulation of cells at G1/G0 phase at 2 uM treated for 7 hrs, washed followed by 16 hrs incubation by flow cytometry (Rvb= 59%)
Type: functional, Potorous tridactylus

CC1=C[C@H]2[C@@H](O)[C@H](C)[C@@H](O)[C@@H]2[C@H]2[C@@H]3C4=C5O[C@](C)(CC[C@@H](OC4=O)[C@H]5C)[C@@H]3C[C@@H]12 [CYCLOSTREPTIN]
Activity: 20.5%

Reference: ChEMBL document CHEMBL1240321, “Cyclostreptin binds covalently to microtubule pores and lumenal taxoid binding sites” (Nat Chem Biol, 2007)
